Assay results reported in US20140243210A1, “PURIFICATION OF IMMUNOGLOBULINS USING AFFINITY CHROMATOGRAPHY AND PEPTIDE LIGANDS” (priority 2005, published 2014).
“And” between values parts separate entries of the source, which are not always exact repeats. Equal entries are not always repeated. Where two headings read alike, the source gives them in different places. No end group written: not given here.

How the values were obtained:
[1] = target: HIgG; test: Adsorption isotherm measurements, Langmuir model; assay type: binding, human
Experimental: Individual peptide sequences determined to bind the Fc fragment of HIgG in primary screening were synthesized directly onto Toyopearl AF-amino-650 M resin (Tosoh BioSciences, Montgomeryville, Pa.) at a substitution of 100 μmol/g resin (Peptides International, Louisville, Ky.). […] Adsorption isotherms were measured in a set of batch experiments at room temperature. All the experiments were performed at least in duplicate. Beads were washed thoroughly and equilibrated with PBS buffer. Centrifugal filters (0.5 ml) with 0.45 μm Durapore membranes (Millipore, Milford, Mass.) were used as adsorption vessels. Resins (10 mg of resin in each vessel) were then equilibrated overnight in PBS, pH 7.4 (Sigma Chemical, St. Louis, Mo.). After removing the PBS, 400 μl of HIgG solutions with concentrations from 0.05 to 10 mg/ml in PBS were added separately to the reaction vessels and incubated on an orbital shaker for 2 hours. The unbound HIgG fractions were collected by centrifugation and the protein concentrations were determined using a Micro-BCA Assay (Pierce, Rockford, Ill.) or by UV-absorbance at 280 nm. The amount of bound HIgG was calculated by mass balance. The data were fit to a Langmuir isotherm model (see Equation 2, below).
where, q=Concentration of bound adsorbate mg-protein/g-resin C=Concentration of free adsorbate mg-protein/ml-solution Kd=Dissociation constant mg/ml qm=Maximum capacity constant mg-protein/g-resin

[2] = system: intact HIgG; test: Secondary screening, batch format, competitive and non-competitive modes; assay type: binding, human; conditions: for Competitive condition, Bound / Competitive condition, Unbound / Non-competitive, Bound / Non-competitive, Unbound: second round; for Competitive condition, Bound / Competitive condition, Unbound: HIgG in MEM, radiolabel extent 2.9%; for Non-competitive, Bound / Non-competitive, Unbound: HIgG in PBS; for Bound %, HIgG, Competitive / Bound %, HIgG, Non-competitive (Micro-BCA): first round; for Bound %, HIgG, Competitive: 14C-HIgG 1 μM spiked in MEM (10% FCS, 5% TPB), radiolabel extent 3.6%; for Bound %, HIgG, Non-competitive (Micro-BCA): pure HIgG 1 μM in PBS
Experimental: (§1) The batch format was used in both competitive and non-competitive modes. The non-competitive mode involved screening using only pure target proteins in PBS buffer. For the competitive mode, target proteins were spiked into mammalian culture medium MEM (Minimum Essential Medium) containing 10% fetal calf serum (FCS) and 5% tryptose phosphate broth (TPB).
(§2) Two target proteins, the Fc fragment of human IgG (HIgG) and intact HIgG, were applied at a concentration of 1 μM. To carry out the secondary screening, 20 mg of the re-synthesized resins were swelled with 20% methanol for one hour, then washed thoroughly and equilibrated with PBS buffer. The beads were incubated with 400 μl of 1 μM 14C-Fc or 14C-IgG in the corresponding solutions in a 0.5 ml centrifuge filter with a 0.45 μm Durapore membrane (Millipore, Milford, Mass.) on a rotating plate for two hours. The particles were washed with PBS buffer for 15 min, and then sequentially washed for one hour each with 400 of: 1 M NaCl in PBS, then 2% acetic acid (AcOH) and 6 M guanidine chloride (GdnHCl). After centrifugation each solution was collected into scintillation fluid for radioactivity counting. The total unbound protein was determined by combining the counts of unbound protein and the wash of PBS. Finally, resins were suspended in scintillation liquid and counted for radioactivity in the same manner, allowing a total radioactivity balance.

[3] = system: Fc fragment of human IgG (HIgG); test: as above; assay type: binding; conditions: first round; for Bound %, Fc fragment, Non-competitive: 14C-Fc 1 μM in PBS; for Bound %, Fc fragment, Competitive: 14C-Fc 1 μM spiked in MEM (10% FCS, 5% TPB)
Experimental: as §1, §2

[4] = system: IgG; conditions: cited from earlier work
[5] = direct Langmuir fit, PBS pH 7.4, room temperature, peptides 0.1 meq/g, read-out: Kd, Langmuir
[6] = direct Langmuir fit, PBS pH 7.4, peptides 0.1 meq/g
[7] = double reciprocal curve, PBS pH 7.4, room temperature, peptides 0.1 meq/g, read-out: Kd, DR curve
[8] = double reciprocal curve, PBS pH 7.4, peptides 0.1 meq/g
[9] = Table 6, direct Langmuir fit, 0.1 meq/g, PBS pH 7.4
[10] = substitution 0.080 mmol/g, read-out: Kd

Substance: WHWRKR [reference compound]
- Kd [1, 5]: 1.39 µM
- qm, Langmuir [1, 6]: 62.4 mg/g
- Kd [1, 7]: 2.47 µM
- qm, DR curve [1, 8]: 81.9 mg/g

Substance: HIWA (not fully specified (C-terminus))
- Competitive condition, Bound [2]: 12.87%
- Competitive condition, Unbound [2]: 87.13%
- Non-competitive, Bound [2]: 7.90%
- Non-competitive, Unbound [2]: 92.10%

Substance: truncation of the subunit GFRKYLHFRRHLL of a multiple antigenic peptide (MAP) (Immunoglobulin binding peptide sequence)
- Competitive condition, Unbound [2]: 59.13%
- qm [1, 9]: 157.9 mg/g

Substance: HFDKGF (not fully specified (C-terminus)) [hexapeptide ligand on Toyopearl resin]
- Bound %, HIgG, Competitive [2]: 6.01%
- Bound %, HIgG, Non-competitive (Micro-BCA) [2]: 10.66%
- Bound %, Fc fragment, Non-competitive [3]: 12.95%
- Bound %, Fc fragment, Competitive [3]: 4.28%

Substance: HANGFL (not fully specified (C-terminus)) [hexapeptide ligand on Toyopearl resin]
- Bound %, HIgG, Competitive [2]: 5.58%
- Bound %, HIgG, Non-competitive (Micro-BCA) [2]: 10.52%
- Bound %, Fc fragment, Non-competitive [3]: 10.23%
- Bound %, Fc fragment, Competitive [3]: 25.64%

Substance: HPWYVT (not fully specified (C-terminus)) [hexapeptide ligand on Toyopearl resin]
- Competitive condition, Bound [2]: 26.96%
- Competitive condition, Unbound [2]: 73.04%

Substance: HWRGWV [Ac-HWRGWV, acetylated HWRGWV on resin, 0.080 mmol/g]
- qm ([1]; substitution 0.080 mmol/g): 130 mg/g and 130.8 mg/g
- Kd [1, 10]: 3.8 µM

Substance: HVHYYW [hexapeptide ligand on Toyopearl resin, 0.1 meq/g]
- Competitive condition, Unbound [2]: 56.73%
- Non-competitive, Bound [2]: 55.49%
- Non-competitive, Unbound [2]: 44.51%
- qm [1, 9]: 129.0 mg/g

Substance: HWRGWV [hexapeptide ligand on Toyopearl AF-amino-650 M resin; 0.1 meq/g unless another substitution is stated]
- Kd [1, 5]: 1.33 µM
- qm, Langmuir [1, 6]: 50.0 mg/g
- Kd [1, 7]: 2.8 µM
- qm, DR curve [1, 8]: 54.8 mg/g
- qm ([1]; substitution 0.022 mmol/g): 158.1 mg/g
- Kd ([1]; substitution 0.022 mmol/g, read-out: Kd): 30 µM
- qm ([1]; substitution 0.040 mmol/g): 147.8 mg/g
- Kd ([1]; substitution 0.040 mmol/g, read-out: Kd): 20.3 µM
- qm ([1]; substitution 0.080 mmol/g): 130 mg/g and 131.8 mg/g
- Kd [1, 10]: 7.25 µM
- qm ([1]; substitution 0.10 mmol/g (different synthesis batch)): 133.6 mg/g
- Kd ([1]; substitution 0.10 mmol/g (different synthesis batch), read-out: Kd): 10.4 µM
- qm ([1]; substitution 0.22 mmol/g): 136.8 mg/g
- Kd ([1]; substitution 0.22 mmol/g, read-out: Kd): 2.58 µM
- qm ([1]; substitution 0.55 mmol/g): 137.6 mg/g
- Kd ([1]; substitution 0.55 mmol/g, read-out: Kd): 0.947 µM

Substance: HYIDAK (not fully specified (C-terminus)) [hexapeptide ligand on Toyopearl resin]
- Competitive condition, Bound [2]: 8.64%
- Competitive condition, Unbound [2]: 91.36%

Substance: Mannosylerythritol lipid
- Capacity ([4]; Poly(2-hydroxyethyl methacrylate) support): 106 mg/g mg/g gel

Substance: HWGPTK (not fully specified (C-terminus)) [hexapeptide ligand on Toyopearl resin]
- Competitive condition, Bound [2]: 19.93%
- Competitive condition, Unbound [2]: 80.07%
- Non-competitive, Bound [2]: 14.39%
- Non-competitive, Unbound [2]: 85.61%

Substance: HWIDPL (not fully specified (C-terminus)) [hexapeptide ligand on Toyopearl resin]
- Competitive condition, Bound [2]: 19.91%
- Competitive condition, Unbound [2]: 80.09%
- Non-competitive, Bound [2]: 9.03%
- Non-competitive, Unbound [2]: 90.97%

Substance: HEILYW (not fully specified (C-terminus)) [hexapeptide ligand on Toyopearl resin]
- Bound %, HIgG, Competitive [2]: 5.50%
- Bound %, HIgG, Non-competitive (Micro-BCA) [2]: 9.16%
- Bound %, Fc fragment, Non-competitive [3]: 18.01%
- Bound %, Fc fragment, Competitive [3]: 3.20%

Substance: HRPKIF [HRPLIF]
- Bound %, HIgG, Competitive [2]: 4.51%
- Bound %, HIgG, Non-competitive (Micro-BCA) [2]: 11.20%
- Bound %, Fc fragment, Non-competitive [3]: 21.46%
- Bound %, Fc fragment, Competitive [3]: 24.48%

Substance: Protein A: protein A immobilized by the CNBr method to 4% cross-linked agarose beads (Amersham Biosciences); positive control [reference compound]
- Capacity ([4]; 4% cross-link agarose): 20 mg/ml mg/ml moist gel

Substance: HIQLDG (not fully specified (C-terminus)) [hexapeptide ligand on Toyopearl resin]
- Competitive condition, Bound [2]: 10.03%
- Competitive condition, Unbound [2]: 89.97%

Substance: HYGLGW (not fully specified (C-terminus)) [hexapeptide ligand on Toyopearl resin]
- Bound %, HIgG, Competitive [2]: 14.48%
- Bound %, HIgG, Non-competitive (Micro-BCA) [2]: 17.89%
- Bound %, Fc fragment, Non-competitive [3]: 19.75%
- Bound %, Fc fragment, Competitive [3]: 4.91%

Substance: EPIHRSTLTALL (not fully specified) [literature peptide ligand on Amino-NuGel (Hoffman LaRoche)]
- Capacity ([4]; Amino-NuGel support, IgG source culture): 320 μg/g μg/g gel

Substance: HYFKFD [hexapeptide ligand on Toyopearl resin, 0.1 meq/g]
- Competitive condition, Unbound [2]: 56.74%
- Non-competitive, Bound [2]: 69.31%
- Non-competitive, Unbound [2]: 30.69%
- qm [1, 9]: 126.8 mg/g
- Kd ([1]; Table 6, direct Langmuir fit, 0.1 meq/g, PBS pH 7.4, read-out: Kd): 11.4 µM

Substance: (RTY)4K2KG [TG19318 (PAM)]
- Capacity ([4]; Epoxy-activated Eupergit C30N support): 25 mg/ml mg/ml gel

Substance: HVWQLK (not fully specified (C-terminus)) [hexapeptide ligand on Toyopearl resin]
- Competitive condition, Bound [2]: 15.05%
- Competitive condition, Unbound [2]: 84.95%

Substance: KGEA (not fully specified (C-terminus))
- Competitive condition, Bound [2]: 7.34%
- Competitive condition, Unbound [2]: 92.66%
- Non-competitive, Bound [2]: 6.08%
- Non-competitive, Unbound [2]: 93.92%

Substance: HDVFHT (not fully specified (C-terminus)) [hexapeptide ligand on Toyopearl resin]
- Competitive condition, Bound [2]: 8.55%
- Competitive condition, Unbound [2]: 91.45%

Substance: KLQWVH (Immunoglobulin binding peptide sequence) [from KLQMVX, with the substitution of M with W and X with H]
- Competitive condition, Bound [2]: 12.15%
- Competitive condition, Unbound [2]: 87.85%

Substance: KRGFYY (Immunoglobulin binding peptide sequence) [combination of KRXXXX, KXXGX and aromatic amino acids F and YY]
- Competitive condition, Bound [2]: 17.27%
- Competitive condition, Unbound [2]: 82.73%

Substance: HLKWYA (not fully specified (C-terminus)) [hexapeptide ligand on Toyopearl resin]
- Competitive condition, Bound [2]: 23.47%
- Competitive condition, Unbound [2]: 76.53%
